Test [1] has as its target T1, Acetylcholinesterase (Mus musculus, UniProt P21836).
T1 sequence (P21836 whole entry): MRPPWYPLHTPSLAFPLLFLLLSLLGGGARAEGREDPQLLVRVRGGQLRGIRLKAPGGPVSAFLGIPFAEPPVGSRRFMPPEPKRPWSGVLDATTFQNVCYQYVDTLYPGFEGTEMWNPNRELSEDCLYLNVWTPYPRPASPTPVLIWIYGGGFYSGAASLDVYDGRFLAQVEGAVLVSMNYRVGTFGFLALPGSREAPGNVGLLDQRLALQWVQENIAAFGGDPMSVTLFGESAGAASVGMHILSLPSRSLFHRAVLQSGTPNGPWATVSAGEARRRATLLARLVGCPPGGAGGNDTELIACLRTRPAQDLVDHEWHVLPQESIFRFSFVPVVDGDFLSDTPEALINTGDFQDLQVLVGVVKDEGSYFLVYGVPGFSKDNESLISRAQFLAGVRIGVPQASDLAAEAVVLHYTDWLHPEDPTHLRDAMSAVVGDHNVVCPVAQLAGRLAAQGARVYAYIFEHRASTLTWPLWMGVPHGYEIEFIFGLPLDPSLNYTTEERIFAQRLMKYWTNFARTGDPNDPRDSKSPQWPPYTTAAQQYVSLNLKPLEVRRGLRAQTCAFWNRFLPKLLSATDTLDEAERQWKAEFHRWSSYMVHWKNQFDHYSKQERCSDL
Nature of the test: Inhibitory activity against mouse brain Acetylcholinesterase.

The target of test [2] is Butyrylcholinesterase (Rattus norvegicus, UniProt Q9JKC1). The experiment in a line: Inhibitory activity against rat butyrylcholinesterase enzyme (BuChE).
Sequence of Butyrylcholinesterase (Q9JKC1 whole entry): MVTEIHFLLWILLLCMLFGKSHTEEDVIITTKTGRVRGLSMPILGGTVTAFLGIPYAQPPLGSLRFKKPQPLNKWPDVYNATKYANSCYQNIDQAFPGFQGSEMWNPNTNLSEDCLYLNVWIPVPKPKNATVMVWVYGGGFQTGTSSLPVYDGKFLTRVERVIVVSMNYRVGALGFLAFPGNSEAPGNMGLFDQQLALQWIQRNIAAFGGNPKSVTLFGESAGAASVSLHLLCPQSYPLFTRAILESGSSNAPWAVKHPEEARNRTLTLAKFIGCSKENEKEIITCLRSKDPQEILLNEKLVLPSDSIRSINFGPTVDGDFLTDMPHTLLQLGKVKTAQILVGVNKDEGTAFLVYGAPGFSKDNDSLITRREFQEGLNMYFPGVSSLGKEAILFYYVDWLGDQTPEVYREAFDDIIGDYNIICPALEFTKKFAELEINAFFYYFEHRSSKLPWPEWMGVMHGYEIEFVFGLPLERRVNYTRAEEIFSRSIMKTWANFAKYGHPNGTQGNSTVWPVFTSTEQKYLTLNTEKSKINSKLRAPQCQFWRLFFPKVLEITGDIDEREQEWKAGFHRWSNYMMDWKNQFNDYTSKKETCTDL
The target in test [3] is T2, Acetylcholinesterase (Mus musculus) (UniProt P21836).
T2 sequence (whole entry): T1 sequence (P21836 whole entry)
Nature of the test: Reversibility of Acetylcholinesterase enzyme inhibition by compound (0.27 uM) before dialysis.

The target in test [4] is T2, Acetylcholinesterase (Mus musculus). Nature of the test: Reversibility of Acetylcholinesterase enzyme inhibition by compound (0.91 uM) before dialysis.
Test [5] has the same target. Nature of the test: Reversibility of Acetylcholinesterase enzyme inhibition by compound (91 uM) before dialysis.
Test [6] shares this target. Nature of the test: Reversibility of Acetylcholinesterase enzyme inhibition by compound (91 uM) after dialysis.
Test [7] shares this target. Nature of the test: Reversibility of Acetylcholinesterase enzyme inhibition by compound (0.91 uM) after dialysis.
Test [8] has the same target. Nature of the test: Reversibility of Acetylcholinesterase enzyme inhibition by compound (0.27 uM) after dialysis.

Molecules are shown by their SMILES.

`O=C(NCCC1CCN(Cc2ccccc2)CC1)c1cccnc1` registered an IC50 in test [1] of 69 nM. That is a double-digit nanomolar value.

On to `O=C(NCCC1CCN(Cc2ccccc2)CC1)c1ccccc1[N+](=O)[O-]`, for which the 50% inhibitory concentration (IC50) in test [1] is 880 nM. Turning to `O=C(NCCC1CCN(Cc2ccccc2)CC1)c1ccccn1`, the half-inhibitory concentration (IC50) in test [1] was 800 nM.

Consider `O=C(NCCC1CCN(Cc2ccccc2)CC1)c1ccc(S(=O)(=O)Cc2ccccc2)cc1`, for which the IC50 in test [1] was determined as 29 nM. In the case of `Cc1cccc(C(=O)NCCC2CCN(Cc3ccccc3)CC2)c1`, the IC50 in test [1] stood at 470 nM. `O=C(NCCC1CCN(Cc2ccccc2)CC1)c1cc[n+]([O-])cc1`: 155 nM corresponded to half-maximal inhibition in test [1] (IC50). For `CCN(CCC1CCN(Cc2ccccc2)CC1)C(=O)c1ccccc1`, the IC50 in test [1] was 130 nM. Turning to `CCN(CCC1CCN(Cc2ccccc2)CC1)C(=O)c1ccc(S(=O)(=O)Cc2ccccc2)cc1`, inhibition in test [1] was half-maximal at 0.3 nM (IC50). `O=Cc1ccc(C(=O)NCCC2CCN(Cc3ccccc3)CC2)cc1` returned an IC50 in test [1] of 120 nM. In test [1], `O=C(NCCC1CCN(Cc2ccccc2)CC1)c1cccc([N+](=O)[O-])c1` came in with a 50% inhibitory concentration (IC50) of 230 nM.

As for `Cc1ccc(C(=O)NCCC2CCN(Cc3ccccc3)CC2)cc1`, 180 nM corresponded to half-maximal inhibition in test [1] (IC50). In the case of `O=C(c1ccc(S(=O)(=O)Cc2ccccc2)cc1)N(CCC1CCN(Cc2ccccc2)CC1)c1ccccc1`, the half-inhibitory concentration (IC50) in test [1] was found to be 0.6 nM. Still for that read-out and setting: the value for `O=C(NCCC1CCN(Cc2ccccc2)CC1)c1ccncc1` was 39 nM. In turn, `O=C(CCCC1CCN(Cc2ccccc2)CC1)c1ccccc1` had an IC50 in test [1] of 530 nM. Take `O=C(c1ccccc1)N(CCC1CCN(Cc2ccccc2)CC1)Cc1ccccc1`: it took 940 nM to reach half-maximal inhibition in test [1] (IC50). This IC50 is about 1.8-fold higher than that of the molecule before. Consider `O=C(NCCC1CCN(Cc2ccccc2)CC1)C1CCCCC1`, for which, in test [1], the IC50 was determined as 1600 nM. This IC50 lies about 1.7-fold higher than the previous one. On to `COc1ccc(C(=O)NCCC2CCN(Cc3ccccc3)CC2)cc1`, for which, in test [1], half-maximal inhibition (IC50) was put at 88 nM. For the molecule `CC(=O)c1ccc(C(=O)NCCC2CCN(Cc3ccccc3)CC2)cc1`, in test [1], the IC50 turned out to be 51 nM. Take `O=C(NCCC1CCN(Cc2ccccc2)CC1)c1ccc(F)cc1`: in test [1], half-maximal inhibition (IC50) required 85 nM. For the molecule `c1ccc(CNCCC2CCN(Cc3ccccc3)CC2)cc1`, the concentration for half-maximal inhibition (IC50) in test [1] came out at 46000 nM.

Regarding `O=C(NCCC1CCN(Cc2ccccc2)CC1)c1ccc(Cl)cc1`, in test [1], 180 nM corresponded to half-maximal inhibition (IC50). This IC50 lies about 260-fold lower than the previous one. Consider `CN(CCC1CCN(Cc2ccccc2)CC1)C(=O)c1ccc(S(=O)(=O)Cc2ccccc2)cc1`, for which inhibition in test [2] was half-maximal at 10.1 µM (IC50). Moreover, the Reversibility in test [3] is 9.1; in test [4], 5.42; in test [5] it was 2.59; in test [6], 16.5; in test [7] it was 17.8; in test [8], 17.7. Molecule `Cc1ccccc1C(=O)NCCC1CCN(Cc2ccccc2)CC1` registered an IC50 in test [1] of 1000 nM. Regarding `O=C(c1ccccc1)N(CCC1CCN(Cc2ccccc2)CC1)c1ccccc1`, in test [1], the midpoint of inhibition, the IC50, lay at 35 nM. Compared with the last molecule, the IC50 is about 29-fold lower.

In general, IC50 refers to the point on the concentration scale where inhibition reaches its midpoint. Higher therefore signals a need for much substance.

These data come from ChEMBL document CHEMBL1124815, “Novel piperidine derivatives. Synthesis and anti-acetylcholinesterase activity of 1-benzyl-4-[2-(N-benzoylamino)ethyl]piperidine derivatives” (J Med Chem, 1990).
